Results as given in patent US20160297833A1, “THIENOPYRIMIDINES AS MKNK1 AND MKNK2 INHIBITORS” (BAYER PHARMA AKTIENGESELLSCHAFT, priority 2013, published 2016).

Target: T1, human full-length MKNK1 (Homo sapiens, UniProt Q9BUB5, T385D)
T1 construct: GST (N); purchased Carna Biosciences 02-145; host or cells: insect cells (baculovirus expression system)
Assay: MKNK1 kinase high ATP assay (TR-FRET)
Assay type: biochemical
Conditions: Table 1; MKNK1 kinase high ATP assay, 2 mM ATP; read-out: MKNK1 IC50
Method in brief: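 Full-length human MKNK1 (T385D) preincubated 15 min at 22 °C with compound in HEPES pH 7.5/MgCl2/DTT buffer; reaction with 2 mM ATP (final) and 0.06 μM biotinylated peptide (final), 30 min at 22 °C.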

T1 sequence (Q9BUB5 1-424 isoform Q9BUB5-2 T344D): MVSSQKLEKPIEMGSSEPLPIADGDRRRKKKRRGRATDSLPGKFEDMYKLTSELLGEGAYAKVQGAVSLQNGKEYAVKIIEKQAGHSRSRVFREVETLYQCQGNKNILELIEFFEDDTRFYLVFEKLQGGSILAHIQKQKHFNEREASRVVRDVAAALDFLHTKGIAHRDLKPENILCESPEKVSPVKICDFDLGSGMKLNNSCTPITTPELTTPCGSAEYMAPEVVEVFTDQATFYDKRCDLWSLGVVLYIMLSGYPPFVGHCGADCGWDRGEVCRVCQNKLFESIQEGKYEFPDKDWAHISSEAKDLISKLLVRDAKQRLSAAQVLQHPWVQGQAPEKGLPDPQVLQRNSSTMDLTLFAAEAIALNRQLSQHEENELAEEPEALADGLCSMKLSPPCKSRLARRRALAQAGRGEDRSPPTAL

**Q.** With `CCCOc1cc2[nH]ncc2cc1Nc1ncnc2sc3c(c12)CC[C@H](C(=O)N1CC(C)(O)C1)C3` [Example 95, (3-Hydroxy-3-methylazetidin-1-yl){(7S)-4-[(6-propoxy-1H-indazol-5-yl)amino]-5,6,7,8-tetrahydro[1]benzothieno[2,3-d]pyrimidin-7-yl}methanone] as the compound, how does the IC50 read?
**A.** 2.3 nM

**Q.** With `CN(C)C(=O)[C@H]1CCc2c(sc3ncnc(Nc4cc5cn[nH]c5cc4O)c23)C1` [Example 96, (7S)-4-[(6-Hydroxy-1H-indazol-5-yl)amino]-N,N-dimethyl-5,6,7,8-tetrahydro[1]benzothieno[2,3-d]pyrimidine-7-carboxamide] as the compound, how does the IC50 read?
**A.** 0.7 nM

**Q.** For `CCCN(C)C(=O)[C@H]1CCc2c(sc3ncnc(Nc4cc5cn[nH]c5cc4OC)c23)C1` [Example 97, (7S)-4-[(6-methoxy-1H-indazol-5-yl)amino]-N-methyl-N-propyl-5,6,7,8-tetrahydro[1]benzothieno[2,3-d]pyrimidine-7-carboxamide], which IC50 is on record?
**A.** 0.3 nM

**Q.** Which IC50 does the source give for `CN(C)C(=O)[C@H]1CCc2c(sc3ncnc(Nc4cc5cn[nH]c5cc4N(C)C)c23)C1` [Example 98, (7S)-4-{[6-(Dimethylamino)-1H-indazol-5-yl]amino}-N,N-dimethyl-5,6,7,8-tetrahydro[1]benzothieno[2,3-d]pyrimidine-7-carboxamide] here?
**A.** 0.2 nM

**Q.** With `CC(C)N(C)c1cc2[nH]ncc2cc1Nc1ncnc2sc3c(c12)CC[C@H](C(=O)N(C)C)C3` [Example 99, (7S)—N,N-Dimethyl-4-({6-[methyl(propan-2-yl)amino]-1H-indazol-5-yl}amino)-5,6,7,8-tetrahydro[1]benzothieno[2,3-d]pyrimidine-7-carboxamide] as the compound, how does the IC50 read?
**A.** 0.3 nM

**Q.** With `CN(C)C(=O)[C@H]1CCc2c(sc3ncnc(Nc4cc5cn[nH]c5cc4NCC(C)(C)O)c23)C1` [Example 100, (7S)-4-({6-[(2-Hydroxy-2-methylpropyl)amino]-1H-indazol-5-yl}amino)-N,N-dimethyl-5,6,7,8-tetrahydro[1]benzothieno[2,3-d]pyrimidine-7-carboxamide] as the compound, how does the IC50 read?
**A.** 882 nM

**Q.** `CN(C)C(=O)[C@H]1CCc2c(sc3ncnc(Nc4cc5cn[nH]c5cc4N(C)CC(C)(C)O)c23)C1` [Example 101, (7S)-4-({6-[(2-Hydroxy-2-methylpropyl)(methyl)amino]-1H-indazol-5-yl}amino)-N,N-dimethyl-5,6,7,8-tetrahydro[1]benzothieno[2,3-d]pyrimidine-7-carboxamide] was tested. Which IC50 did it give?
**A.** 9.1 nM

**Q.** `CN(C)C(=O)[C@H]1CCc2c(sc3ncnc(Nc4cc5cn[nH]c5cc4N4CCC4)c23)C1` [Example 102, (7S)-4-{[6-(Azetidin-1-yl)-1H-indazol-5-yl]amino}-N,N-dimethyl-5,6,7,8-tetrahydro[1]benzothieno[2,3-d]pyrimidine-7-carboxamide] was tested. Which IC50 did it give?
**A.** 24.5 nM

**Q.** How did the IC50 turn out when `CN(C)C(=O)[C@H]1CCc2c(sc3ncnc(Nc4cc5cn[nH]c5cc4N4CCCC4)c23)C1` [Example 103, (7S)—N,N-Dimethyl-4-{[6-(pyrrolidin-1-yl)-1H-indazol-5-yl]amino}-5,6,7,8-tetrahydro[1]benzothieno[2,3-d]pyrimidine-7-carboxamide] was run?
**A.** 1.3 nM

**Q.** How did the IC50 turn out when `CN(C)C(=O)[C@H]1CCc2c(sc3ncnc(Nc4cc5cn[nH]c5cc4N4CCC(N(C)C)CC4)c23)C1` [Example 104, (7S)-4-({6-[4-(Dimethylamino)piperidin-1-yl]-1H-indazol-5-yl}amino)-N,N-dimethyl-5,6,7,8-tetrahydro[1]benzothieno[2,3-d]pyrimidine-7-carboxamide] was run?
**A.** 29.5 nM

**Q.** `CCCCN(C)C(=O)[C@H]1CCc2c(sc3ncnc(Nc4cc5cn[nH]c5cc4N4CCC(N(C)C)CC4)c23)C1` [Example 105, (7S)—N-Butyl-4-({6-[4-(dimethylamino)piperidin-1-yl]-1H-indazol-5-yl}amino)-N-methyl-5,6,7,8-tetrahydro[1]benzothieno[2,3-d]pyrimidine-7-carboxamide] was tested. Which IC50 did it give?
**A.** 14.1 nM

**Q.** Which IC50 does the source give for `CSc1cc2[nH]ncc2cc1Nc1ncnc2sc3c(c12)CC[C@H](C(=O)N(C)C)C3` [Example 106, (7S)—N,N-Dimethyl-4-{[6-(methylsulfanyl)-1H-indazol-5-yl]amino}-5,6,7,8-tetrahydro[1]benzothieno[2,3-d]pyrimidine-7-carboxamide] here?
**A.** 4.6 nM

**Q.** `CN(C)C(=O)[C@H]1CCc2c(sc3ncnc(Nc4cc5cn[nH]c5cc4OCCN=[N+]=[N-])c23)C1` [Example 107, (7S)-4-{[6-(2-Azidoethoxy)-1H-indazol-5-yl]amino}-N,N-dimethyl-5,6,7,8-tetrahydro[1]benzothieno[2,3-d]pyrimidine-7-carboxamide] was tested. Which IC50 did it give?
**A.** 10 nM

**Q.** Which IC50 does the source give for `CN(C)C(=O)[C@H]1CCc2c(sc3ncnc(Nc4cc5cn[nH]c5cc4OCCN)c23)C1` [Example 108, (7S)-4-{[6-(2-Aminoethoxy)-1H-indazol-5-yl]amino}-N,N-dimethyl-5,6,7,8-tetrahydro[1]benzothieno[2,3-d]pyrimidine-7-carboxamide] here?
**A.** 0.6 nM

**Q.** How did the IC50 turn out when `CN(C)CCOc1cc2[nH]ncc2cc1Nc1ncnc2sc3c(c12)CC[C@H](C(=O)N(C)C)C3` [Example 109, (7S)-4-({6-[2-(Dimethylamino)ethoxy]-1H-indazol-5-yl}amino)-N,N-dimethyl-5,6,7,8-tetrahydro[1]benzothieno[2,3-d]pyrimidine-7-carboxamide] was run?
**A.** 16.5 nM

**Q.** With `CN(C)C(=O)[C@H]1CCc2c(sc3ncnc(Nc4cc5cn[nH]c5cc4OCCCN=[N+]=[N-])c23)C1` [Example 110, (7S)-4-{[6-(3-Azidopropoxy)-1H-indazol-5-yl]amino}-N,N-dimethyl-5,6,7,8-tetrahydro[1]benzothieno[2,3-d]pyrimidine-7-carboxamide] as the compound, how does the IC50 read?
**A.** 2.3 nM

**Q.** With `CN(C)C(=O)[C@H]1CCc2c(sc3ncnc(Nc4cc5cn[nH]c5cc4OCCCN)c23)C1` [Example 111, (7S)-4-{[6-(3-Aminopropoxy)-1H-indazol-5-yl]amino}-N,N-dimethyl-5,6,7,8-tetrahydro[1]benzothieno[2,3-d]pyrimidine-7-carboxamide] as the compound, how does the IC50 read?
**A.** 1.4 nM

**Q.** Which IC50 does the source give for `CN(C)C(=O)[C@H]1CCc2c(sc3ncnc(Nc4cc5cn[nH]c5cc4OCCN4CCCC4)c23)C1` [Example 112, (7S)—N,N-Dimethyl-4-({6-[2-(pyrrolidin-1-yl)ethoxy]-1H-indazol-5-yl}amino)-5,6,7,8-tetrahydro[1]benzothieno[2,3-d]pyrimidine-7-carboxamide] here?
**A.** 76.3 nM

**Q.** For `CN(C)C(=O)[C@H]1CCc2c(sc3ncnc(Nc4cc5cn[nH]c5cc4OCCN4CCCCC4)c23)C1` [Example 113, (7S)—N,N-Dimethyl-4-({6-[2-(piperidin-1-yl)ethoxy]-1H-indazol-5-yl}amino)-5,6,7,8-tetrahydro[1]benzothieno[2,3-d]pyrimidine-7-carboxamide], which IC50 is on record?
**A.** 634 nM

**Q.** Which IC50 does the source give for `C[C@@H]1COCCN1C(=O)[C@H]1CCc2c(sc3ncnc(Nc4cc5cn[nH]c5cc4OCCN(C)C)c23)C1` [Example 114, [(7S)-4-({6-[2-(Dimethylamino)ethoxy]-1H-indazol-5-yl}amino)-5,6,7,8-tetrahydro[1]benzothieno[2,3-d]pyrimidin-7-yl][(3R)-3-methylmorpholin-4-yl]methanone] here?
**A.** 34.2 nM

**Q.** For `C[C@@H]1COCCN1C(=O)[C@H]1CCc2c(sc3ncnc(Nc4cc5cn[nH]c5cc4OCCN4CCCC4)c23)C1` [Example 115, [(3R)-3-Methylmorpholin-4-yl][(7S)-4-({6-[2-(pyrrolidin-1-yl)ethoxy]-1H-indazol-5-yl}amino)-5,6,7,8-tetrahydro[1]benzothieno[2,3-d]pyrimidin-7-yl]methanone], which IC50 is on record?
**A.** 71.5 nM
